Laboratory results reported in ChEMBL document CHEMBL4813941, “Secondary Metabolites from the Leather Coral-Derived Fungal Strain Xylaria sp. FM1005 and Their Glycoprotein IIb/IIIa Inhibitory Activity” (J Nat Prod, 2021).
Values joined by “and” are separate entries in the source; they are usually repeats but may differ in a detail not shown here. Identical values can stand only once. Active and inactive are the calls of the source. The calls are words filed in the database; no cut-off is given here.

Experiments:
Plasma [1] = assay: Antiplatelet activity in Sprague-Dawley rat platelet-rich plasma assessed as inhibition of ADP-induced platelet aggregation at 1 ug/ml preincubated for 5 mins followed by ADP addition and measured after 5 mins by light microscopic analysis; type: functional, cell-free; details: dose 1.0 µg/ml, time 10.0 min
Plasma [2] = assay: Antiplatelet activity in Sprague-Dawley rat platelet-rich plasma assessed as inhibition of CaCl2-induced platelet aggregation at 1 ug/ml preincubated for 5 mins followed by CaCl2 addition and measured after 5 mins by light microscopic analysis; type: functional, cell-free; details: dose 1.0 µg/ml, time 10.0 min
[3] = target: T1, Integrin subunit alpha 2b/beta-3 (Rattus norvegicus) (UniProt D3ZAC0+Q8R2H2); assay: (§1) Inhibition of fibrinogen binding to rat platelet integrin alpha2b beta3 by ELISA based solid phase binding assay; type: cell-based
[4] = target: T2, Integrin subunit alpha 2b/beta-3 (Rattus norvegicus, UniProt D3ZAC0+Q8R2H2); assay: as §1; type: cell-based
T2 sequence (D3ZAC0 whole entry): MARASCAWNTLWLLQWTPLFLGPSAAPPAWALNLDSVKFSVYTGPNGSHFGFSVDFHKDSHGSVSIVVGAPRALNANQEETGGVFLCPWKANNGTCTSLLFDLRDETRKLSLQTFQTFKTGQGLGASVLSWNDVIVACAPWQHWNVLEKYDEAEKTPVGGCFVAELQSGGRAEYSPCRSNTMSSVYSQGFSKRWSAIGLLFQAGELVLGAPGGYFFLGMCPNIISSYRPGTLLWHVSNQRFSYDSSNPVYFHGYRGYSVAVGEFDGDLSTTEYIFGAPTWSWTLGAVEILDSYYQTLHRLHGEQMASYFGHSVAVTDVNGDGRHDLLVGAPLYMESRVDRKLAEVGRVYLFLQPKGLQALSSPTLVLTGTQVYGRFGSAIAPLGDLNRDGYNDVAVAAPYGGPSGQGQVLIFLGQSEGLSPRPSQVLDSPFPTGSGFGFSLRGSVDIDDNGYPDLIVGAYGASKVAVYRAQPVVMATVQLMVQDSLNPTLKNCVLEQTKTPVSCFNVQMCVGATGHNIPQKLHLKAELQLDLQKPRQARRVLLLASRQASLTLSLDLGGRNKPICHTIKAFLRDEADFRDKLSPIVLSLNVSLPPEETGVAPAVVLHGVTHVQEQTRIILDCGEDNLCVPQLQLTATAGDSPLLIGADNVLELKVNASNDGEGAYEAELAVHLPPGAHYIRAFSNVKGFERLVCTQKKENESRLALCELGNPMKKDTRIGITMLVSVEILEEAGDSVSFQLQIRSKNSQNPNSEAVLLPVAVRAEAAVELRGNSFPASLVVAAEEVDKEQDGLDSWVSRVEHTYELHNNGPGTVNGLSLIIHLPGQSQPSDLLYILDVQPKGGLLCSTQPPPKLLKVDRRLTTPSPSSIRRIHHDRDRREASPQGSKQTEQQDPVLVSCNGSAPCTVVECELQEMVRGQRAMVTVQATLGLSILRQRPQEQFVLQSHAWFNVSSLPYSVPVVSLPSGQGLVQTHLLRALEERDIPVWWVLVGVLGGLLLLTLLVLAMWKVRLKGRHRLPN
T2 sequence (Q8R2H2 whole entry): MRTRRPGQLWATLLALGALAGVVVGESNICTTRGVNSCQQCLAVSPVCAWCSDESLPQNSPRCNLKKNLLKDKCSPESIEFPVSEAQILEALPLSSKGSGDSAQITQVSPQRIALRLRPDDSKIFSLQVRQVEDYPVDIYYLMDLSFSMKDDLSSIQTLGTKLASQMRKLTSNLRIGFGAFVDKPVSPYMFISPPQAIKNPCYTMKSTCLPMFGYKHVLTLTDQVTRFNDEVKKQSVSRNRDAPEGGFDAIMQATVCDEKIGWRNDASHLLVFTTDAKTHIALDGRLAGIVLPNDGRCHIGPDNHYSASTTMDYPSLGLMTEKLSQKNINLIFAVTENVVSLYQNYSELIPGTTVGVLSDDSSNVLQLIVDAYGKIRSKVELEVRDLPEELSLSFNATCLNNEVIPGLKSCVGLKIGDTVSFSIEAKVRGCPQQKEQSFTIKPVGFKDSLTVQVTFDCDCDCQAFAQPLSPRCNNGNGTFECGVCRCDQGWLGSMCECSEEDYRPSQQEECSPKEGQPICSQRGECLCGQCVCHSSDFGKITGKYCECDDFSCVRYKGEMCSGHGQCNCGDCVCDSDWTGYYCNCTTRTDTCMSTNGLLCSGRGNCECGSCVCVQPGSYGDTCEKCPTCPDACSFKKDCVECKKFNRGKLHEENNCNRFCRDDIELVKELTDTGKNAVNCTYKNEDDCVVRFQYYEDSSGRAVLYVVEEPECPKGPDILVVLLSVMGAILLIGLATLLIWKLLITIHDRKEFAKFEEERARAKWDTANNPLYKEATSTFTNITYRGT

Staphylococcus aureus = assay: Antibacterial activity against Staphylococcus aureus at 80 ug/ml incubated for 24 hrs by resazurin dye based broth microdilution method; type: functional, organism-based; details: dose 80.0 µg/ml
Bacillus subtilis = assay: Antibacterial activity against Bacillus subtilis at 80 ug/ml incubated for 24 hrs by resazurin dye based broth microdilution method; type: functional, organism-based; details: dose 80.0 µg/ml
Pseudomonas aeruginosa = assay: Antibacterial activity against Pseudomonas aeruginosa at 80 ug/ml incubated for 24 hrs by resazurin dye based broth microdilution method; type: functional, organism-based; details: dose 80.0 µg/ml
Escherichia coli = assay: Antibacterial activity against Escherichia coli at 80 ug/ml incubated for 24 hrs by resazurin dye based broth microdilution method; type: functional, organism-based; details: dose 80.0 µg/ml
A2780 = assay: Antiproliferative activity against human A2780 cells at 40 uM incubated for 72 hrs by CyQuant assay; type: cell-based; details: a2780, 72 h
HEK293 = assay: Antiproliferative activity against human HEK293 cells at 40 uM by SRB assay; type: cell-based; details: hek293, 40 µM
[5] = target: T1, Integrin subunit alpha 2b/beta-3 (Rattus norvegicus); assay: Inhibition of fibrinogen binding to rat platelet integrin alpha2b beta3 at 1 ug/ml by ELISA based solid phase binding assay; type: cell-based; details: dose 1.0 µg/ml

SMILES	inhibition [3]	IC50 [4]	inhibition [5]	Activity (Plasma [1])	Activity (Plasma [2])	Activity (Staphylococcus aureus)	Activity (Bacillus subtilis)	Activity (Pseudomonas aeruginosa)	Activity (Escherichia coli)	Activity (A2780)	Activity (HEK293)
CCCCS(=O)(=O)N[C@@H](Cc1ccc(OCCCCC2CCNCC2)cc1)C(=O)O [TIROFIBAN]	–	130 nM and 136 nM	–	–	–	–	–	–	–	–	–
CCCCCC(=O)N[C@@H](Cc1ccc(OCC#CCO)cc1)C(=O)O	–	–	inactive	inactive	inactive	inactive	inactive	inactive	inactive	Non-Toxic	Non-Toxic
CC#CCOc1ccc(C[C@H](NC(=O)CCC)C(=O)O)cc1	–	–	inactive	inactive	inactive	inactive	inactive	inactive	inactive	Non-Toxic	Non-Toxic
CC#CCOc1ccc(C[C@H](NC(=O)CCCC)C(=O)O)cc1	–	–	inactive	inactive	inactive	inactive	inactive	inactive	inactive	Non-Toxic	Non-Toxic
C/C(=C/COc1ccc(CC(=O)O)cc1)C(=O)O	–	–	inactive	inactive	inactive	inactive	inactive	inactive	inactive	Non-Toxic	Non-Toxic

Now from value to compound, other results behind:

inhibition [3]	IC50 [4]	inhibition [5]	SMILES	Activity (Plasma [1])	Activity (Plasma [2])	Activity (Staphylococcus aureus)	Activity (Bacillus subtilis)	Activity (Pseudomonas aeruginosa)	Activity (Escherichia coli)	Activity (A2780)	Activity (HEK293)
Dose-Dependent Effect	610 nM and 603 nM	–	CC#CCOc1ccc(C[C@H](NC(=O)CCCCC)C(=O)O)cc1	Active	Active	inactive	inactive	inactive	inactive	Non-Toxic	Non-Toxic
Dose-Dependent Effect	890 nM and 897 nM	–	CC#CCOc1ccc(C[C@H](NC(=O)CCCCC)C(=O)OC)cc1	Active	Active	inactive	inactive	inactive	inactive	Non-Toxic	Non-Toxic
